Results from patent US12678438B2, “Treatment of cancer with CDK inhibitors” (THE TRUSTEES OF THE UNIVERSITY OF PENNSYLVANIA, priority 2019, dated 2026).

Tests used:
AR-dependent PCa lines = test: Cell viability assay (Cell-Titer GLO), GI50; assay type: cell-based; details: Homo sapiens; five AR-dependent PCa lines, 96 h incubation
Method: (§1) Cell viability assays were performed by seeding the cells in 96-well plates at 2500-10000 cells/well (optimum density for growth) in a total volume of 100 μL complete media. Serially diluted compounds/drugs in 100 μL media were added to the cells 24 h post seeding. Following 96 h incubation, cell viability was assessed by Cell-Titer GLO (Promega, PR G7571). The measurements were normalized and regression curves were fitted to calculate GI50 using GraphPad Prism software.

AR-negative cells = test: Cell viability assay (Cell-Titer GLO), GI50; assay type: cell-based; details: Homo sapiens; three AR-negative cells, 96 h incubation
Method: as §1

[1] = tested on: MED1 and AR recruitment to the chromatin; test: ChIP-seq of genome-wide MED1 and AR binding; assay type: cell-based, human; details: DHT-treated VCaP and LNCaP, THZ1
Method: ChIP was performed using iDeal ChIP-seq Kit for Transcription Factors (Diagenode, C01010170) according to manufacturer's protocol. In brief, the cells were crosslinked with 1% formaldehyde in culture medium for 10 min at room temperature. Cross-linking was terminated by the addition of 1/10 volume 1.25 M glycine for 5 min at room temperature followed by cell lysis and sonication (Bioruptor, Diagenode), resulting in an average chromatin fragment size of 200 bp. Chromatin equivalent to 5×10^6 cells was isolated and incubated with 10 μg antibody overnight at 4° C. (MED1, H3-acetyl K27, AR, and IgG (Diagenode). ChIP-seq libraries were prepared from the ChIP-enriched DNA samples using the TruSeq ChIP Library Preparation Kit (Illumina, IP-202-1012, IP-202-1024) and protocol. In brief, ChIP-enriched DNA (1-10 ng) was converted to blunt-ended fragments. A single A-base was added to fragment ends followed by ligation of Illumina adaptors. The adaptor-modified DNA fragments were enriched by PCR using the Illumina Barcode primers and Phusion DNA polymerase. PCR products were size selected using 3% NuSieve agarose gels (Lonza) followed by gel extraction using QIAEX II reagents (QIAGEN). Libraries were quantified with the Bioanalyzer 2100 (Agilent) and sequenced on the Illumina NextSeq 500 Sequencer (75 nucleotide read length).
Sequencing reads were quality checked with FASTQC (www.bioinformatics.babraham.ac.uk/projects/fastqc) and aligned to the GRCh37 (release 27) genome using the STAR v2.5.1 aligner with default settings. PCR duplicate reads in the aligned bam files were removed using samtools, bam files were converted to CPM normalized bigwig tracks using deeptools, and viewed using the Integrated Genomics Viewer or the UCSC genome browser. Single end reads were extended up to the fragment length (200 bp) along the read direction.
The enrichment peaks for the various transcription factors and histone marks were computed using MACS2, with default settings. Regions found to ubiquitously enriched across a number of next-generation sequencing experiments, also known as the blacklisted peaks (sites.google.com/site/anshulkundaje/projects/blacklists), were excluded in all subsequent analysis.

[2] = tested on: DHT-induced AR target genes; test: RNA-seq of DHT-stimulated VCaP and LNCaP cells; assay type: cell-based, human; details: 10 nM DHT with 100 nM THZ1
Method: For AR signaling stimulation experiments, cells were plated in complete media at required confluency. After 24 h cells were washed with DPBS and cultured in RPMI/DMEM without Phenol Red (Invitrogen, 11835030) and 10% charcoal-dextran stripped FBS (Gemini BioProducts, 100-119) for 72 h. Cells were then stimulated with 10 nM DHT for the specific time points.
RNA-seq libraries were constructed using the TruSeq sample Prep Kit V2 (Illumina) according to the manufacturer's instructions. Briefly, 1 μg of purified RNA was poly-A selected and fragmented with fragmentation enzyme. […] The DNA library was quantitated using Qubit and normalized to 4 nM prior to pooling. […] Library pools were clustered and run on Nextseq500 platform (Illumina Inc.) with single-end reads of 75 bases.
Single-end sequencing reads were demultiplexed using Illumina bcl2fastq, quality checked using FASTQC (bioinformatics.babraham ac uk/projects/fastqc), and aligned to the GRCh37 (release 27) genome using the STAR v2.5.1 aligner, with default settings. The read statistics generated by STAR v2.5.1 was used to ensure that the aligned reads in all samples were over 90% of the total reads. […]
Genes differentially expressed between any two sets of treatment were determined using DESeq2 (bioconductor.org/packages/release/bioc/html/DESeq.html), a statistical tool that employs shrinkage estimates to compute fold changes. […]

CN(C)C/C=C/C(=O)Nc1ccc(C(=O)Nc2cccc(Nc3ncc(Cl)c(-c4c[nH]c5ccccc45)n3)c2)cc1 [THZ1]
GI50 (AR-dependent PCa lines): 50 to 170 nM | GI50 (AR-negative cells): 400 to 600 nM | genome-wide AR recruitment (ChIP-seq) [1]: significantly limited AR recruitment | genome-wide MED1 recruitment (ChIP-seq) [1]: blocked MED1 recruitment entirely | genome-wide DHT-induced differentially expressed AR target genes [2]: completely reversed almost all
